Reference: patent US20260248927A1, “TARGETED PROTEIN DEGRADATION USING BIFUNCTIONAL COMPOUNDS THAT BIND UBIQUITIN LIGASE AND TARGET MCL-1 PROTEIN” (Captor Therapeutics S.A., priority 2022, published 2026)

Experiments:
[1] = target: [MCL-1]-[compound of formula (I)]—[CRBN/DDB1] (Homo sapiens, UniProt Q07820+Q96SW2); test: HTRF ternary complex formation assay; assay type: binding; details: hMcl-1 and CRBN, 180 min at 25° C.; read-out: HTRF ternary complex Average pEC50 by molecule (converted)
Procedure: The effect of the bifunctional compounds of the invention on the formation of a ternary complex composed of [MCL-1]-[compound of formula (I)]—[CRBN/DDB1] was investigated with HTRF ternary complex assay.
Mix of protein solution was prepared: • 48 nM hMcl-1 and 105.6 nM CRBN were prepared in PPI Europium detection buffer with 2 mM DTT. • Acceptor and donor stock solutions were diluted 100 times in PPI Europium detection buffer. Equal volumes of both reagents were mixed. Finally giving 3 nM of Streptavidin-Eu cryptate ([…]) and 6.67 nM of Anti-6×his-d2 ([…]).
5 μl of protein mix was dispensed to all wells. The tested compounds in dose-response were dispensed onto a white 384-well low volume plate (Greiner, 784075). DMSO was backfilled to all wells, resulting in a final DMSO content of 0.5%. Wells containing only DMSO served as a background. Next, 5 μl of solution with donor and acceptor was added to the wells.
The plate was sealed with transparent film and shaken using a VibroTurbulator for 60 sec at level 3. The plate was then spun down shortly (10 s, 1000 rcf) and incubated at 25° C. for 180 min.
The read-out was performed with plate reader (Pherastar, BMG Labtech) in time resolved fluorescence mode. Filterset: TR 337 665 620.
The results were analyzed as follows: • 1) an average of fluorescence for background signal was calculated and used as a negative control; • 2) raw fluorescence values for tested compounds were normalized against negative controls; • 3) bell shape curve was fitted to a gaussian distribution using a non-linear least squares Gauss-Newton algorithm; • 4) EC50 and pEC50 values were determined.

MV4-11 cells = test: Cell viability assay (CellTiter-Glo), MV4-11; assay type: cell-based; details: Homo sapiens, MV4-11, 24 hours, 1% FBS, read-out: Average pCC50 by molecule MV4-11 (converted)
From the text: (§1) The effect of various compounds of the invention on the viability of MV4-11 and ARH-77 cell lines was investigated, using the CTG protocol described below.
(§2) MV4-11 cell lines are derived from acute myeloid leukaemia and it is described in the literature as a MCL-1 dependent cell line, as opposed to lymphoblast-like ARH-77 cell line, which is described as independent of MCL-1 (Tron A E et al. Nat Commun. 2018; 9: 5341; Caenepeel S et al. Cancer Discov. 2018 December; 8(12): 1582-1597).
(§3) Cells (MV4-11 or ARH-77) were seeded on […] in a growth medium with 1% FBS. Next, compound stocks were pre-diluted in DMSO and added directly to the cell culture media (final DMSO concentration: 0.5%). Compound concentrations used in this assay: 1/3 dilutions starting at 30 μM (9 to 12 points). After 24 hours of incubation, cell viability was evaluated using CellTiter-Glo Luminescent Cell Viability Assay (Promega, cat #G7572). The luminescence signal was measured using a CLARIOstar Plus Multi-Mode Microplate Reader (574-590 nm).
(§4) Results were normalized to DMSO control. Collected data were analyzed using GraphPad Prism to calculate pCC50 values.

[2] = Cell viability assay (CellTiter-Glo), ARH-77; assay type: cell-based; details: human, ARH-77 cells (lymphoblast-like, MCL-1 independent), ARH-77, 24 hours, 1% FBS, read-out: Average pCC50 by molecule ARH-77 (converted)
From the text: as §1, §2, §3, §4

Chain of [MCL-1]-[compound of formula (I)]—[CRBN/DDB1] (Q07820 whole entry): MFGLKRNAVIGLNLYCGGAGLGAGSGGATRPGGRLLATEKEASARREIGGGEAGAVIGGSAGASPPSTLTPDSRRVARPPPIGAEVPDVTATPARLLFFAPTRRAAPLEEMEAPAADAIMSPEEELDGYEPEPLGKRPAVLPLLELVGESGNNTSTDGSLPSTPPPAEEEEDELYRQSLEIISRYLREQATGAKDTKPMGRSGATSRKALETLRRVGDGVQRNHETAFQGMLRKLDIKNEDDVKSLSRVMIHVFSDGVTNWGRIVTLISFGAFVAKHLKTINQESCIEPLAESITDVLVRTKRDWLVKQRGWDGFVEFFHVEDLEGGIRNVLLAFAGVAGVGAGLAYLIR
Chain of [MCL-1]-[compound of formula (I)]—[CRBN/DDB1] (Q96SW2 whole entry): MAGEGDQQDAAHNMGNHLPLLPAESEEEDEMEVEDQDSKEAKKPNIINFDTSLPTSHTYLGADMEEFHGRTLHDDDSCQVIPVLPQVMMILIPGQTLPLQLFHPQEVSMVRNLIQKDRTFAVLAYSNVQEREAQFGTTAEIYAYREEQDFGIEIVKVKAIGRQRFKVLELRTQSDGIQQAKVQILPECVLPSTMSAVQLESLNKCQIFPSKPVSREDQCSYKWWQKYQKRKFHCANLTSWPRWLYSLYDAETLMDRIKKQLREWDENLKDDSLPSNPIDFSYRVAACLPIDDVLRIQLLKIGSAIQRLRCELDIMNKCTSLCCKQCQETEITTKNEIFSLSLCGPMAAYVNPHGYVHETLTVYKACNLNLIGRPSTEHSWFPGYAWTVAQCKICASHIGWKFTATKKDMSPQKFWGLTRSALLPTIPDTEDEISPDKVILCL
Chain of [MCL-1]-[compound of formula (I)]—[CRBN/DDB1] (Q16531 whole entry partner): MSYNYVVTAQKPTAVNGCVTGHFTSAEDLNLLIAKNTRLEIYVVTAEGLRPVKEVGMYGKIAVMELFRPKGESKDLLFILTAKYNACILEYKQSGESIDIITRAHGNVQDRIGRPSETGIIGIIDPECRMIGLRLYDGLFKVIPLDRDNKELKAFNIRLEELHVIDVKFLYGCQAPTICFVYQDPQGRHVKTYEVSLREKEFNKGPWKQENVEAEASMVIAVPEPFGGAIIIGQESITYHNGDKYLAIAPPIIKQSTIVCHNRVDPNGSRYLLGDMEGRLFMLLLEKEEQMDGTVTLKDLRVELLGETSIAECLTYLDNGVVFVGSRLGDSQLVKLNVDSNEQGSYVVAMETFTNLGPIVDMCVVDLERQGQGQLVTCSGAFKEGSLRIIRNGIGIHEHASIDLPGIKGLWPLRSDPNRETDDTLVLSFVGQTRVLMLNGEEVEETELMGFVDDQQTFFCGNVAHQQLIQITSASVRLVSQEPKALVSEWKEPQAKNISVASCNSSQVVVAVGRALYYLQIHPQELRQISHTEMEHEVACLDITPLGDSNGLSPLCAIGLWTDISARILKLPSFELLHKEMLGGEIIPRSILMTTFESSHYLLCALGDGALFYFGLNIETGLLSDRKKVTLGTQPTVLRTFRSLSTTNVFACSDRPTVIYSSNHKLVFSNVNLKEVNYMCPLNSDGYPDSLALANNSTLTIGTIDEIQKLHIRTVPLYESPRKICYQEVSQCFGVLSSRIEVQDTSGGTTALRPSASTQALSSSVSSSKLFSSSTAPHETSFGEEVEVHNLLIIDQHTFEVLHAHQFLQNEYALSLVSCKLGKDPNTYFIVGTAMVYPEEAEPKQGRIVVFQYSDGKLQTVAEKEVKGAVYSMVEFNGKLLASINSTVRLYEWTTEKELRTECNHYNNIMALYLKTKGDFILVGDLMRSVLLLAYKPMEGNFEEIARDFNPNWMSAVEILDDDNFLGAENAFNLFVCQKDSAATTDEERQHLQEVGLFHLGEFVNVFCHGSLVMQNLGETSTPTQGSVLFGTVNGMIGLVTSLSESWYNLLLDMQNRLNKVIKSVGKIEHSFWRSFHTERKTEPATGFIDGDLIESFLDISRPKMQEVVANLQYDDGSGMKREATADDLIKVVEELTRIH

Compound | EC50 [1] [nM] | CC50 (MV4-11 cells) [nM] | CC50 at 24 h [2] [nM]
Cc1nc2c(C(=O)NC3CCC(=O)NC3=O)cc(OCCC(=O)N3CCN(CCn4c(C(=O)O)c(CCCOc5cccc6cc(F)ccc56)c5ccc(Cl)c(-c6c(C)nn(C)c6C)c54)CC3)cc2[nH]1 (stereo not drawn) [Compound 3, 6-Chloro-1-(2-{4-[3-({4-[(2,6-dioxopiperidin-3-yl)carbamoyl]-2-methyl-1H-1,3-benzodiazol-6-yl}oxy)propanoyl]piperazin-1-yl}ethyl)-3-{3-[(6-fluoronaphthalen-1-yl)oxy]propyl}-7-(1,3,5-trimethyl-1H-pyrazol-4-yl)-1H-indole-2-carboxylic acid] | < 100 | < 100 | > 31600
Cc1nn(C)c(C)c1-c1c(Cl)ccc2c(CCCOc3cccc4cc(F)ccc34)c(C(=O)O)n(CCN3CCN(C(=O)COc4cccc5c4n(C)c(=O)n5C4CCC(=O)NC4=O)CC3)c12 (stereo not drawn) [Compound 23, 6-Chloro-1-(2-(4-(2-((1-(2,6-dioxopiperidin-3-yl)-3-methyl-2-oxo-2,3-dihydro-1H-benzo[d]imidazol-4-yl)oxy)acetyl)piperazin-1-yl)ethyl)-3-(3-((6-fluoronaphthalen-1-yl)oxy)propyl)-7-(1,3,5-trimethyl-1H-pyrazol-4-yl)-1H-indole-2-carboxylic acid] | < 316 | < 31.6 | > 10000
Cc1nn(C)c(C)c1-c1c(Cl)ccc2c(CCCOc3cccc4cc(F)ccc34)c(C(=O)O)n(CCN3CCN(C(=O)COc4cccc5c4C(C)N(C4CCC(=O)NC4=O)C5=O)CC3)c12 (stereo not drawn) [Compound 15, 6-Chloro-1-{2-[4-(2-{[2-(2,6-dioxopiperidin-3-yl)-3-methyl-1-oxo-2,3-dihydro-1H-isoindol-4-yl]oxy}acetyl)piperazin-1-yl]ethyl}-3-{3-[(6-fluoronaphthalen-1-yl)oxy]propyl}-7-(1,3,5-trimethyl-1H-pyrazol-4-yl)-1H-indole-2-carboxylic acid] | < 316 | < 100 | > 10000
Cc1nn(C)c(C)c1-c1c(Cl)ccc2c(CCCOc3cccc4cc(F)ccc34)c(C(=O)O)n(CCN3CCN(C(=O)COc4ccc5c6c(cccc46)C(=O)N5C4CCC(=O)NC4=O)CC3)c12 (stereo not drawn) [Compound 21, 6-Chloro-1-(2-(4-(2-((1-(2,6-dioxopiperidin-3-yl)-2-oxo-1,2-dihydrobenzo[cd]indol-6-yl)oxy)acetyl)piperazin-1-yl)ethyl)-3-(3-((6-fluoronaphthalen-1-yl)oxy)propyl)-7-(1,3,5-trimethyl-1H-pyrazol-4-yl)-1H-indole-2-carboxylic acid] | < 31.6 | < 316 | > 10000
Cc1nc2cc(C(=O)NCC(=O)N3CCN(CCn4c(C(=O)O)c(CCCOc5cccc6cc(F)ccc56)c5ccc(Cl)c(-c6c(C)nn(C)c6C)c54)CC3)ccc2cc1C1CCC(=O)NC1=O (stereo not drawn) [Compound 6, 6-Chloro-1-(2-(4-((3-(2,6-dioxopiperidin-3-yl)-2-methylquinoline-7-carbonyl)glycyl)piperazin-1-yl)ethyl)-3-(3-((6-fluoronaphthalen-1-yl)oxy)propyl)-7-(1,3,5-trimethyl-1H-pyrazol-4-yl)-1H-indole-2-carboxylic acid] | < 100 | < 100 | > 10000
Cc1nn(C)c(C)c1-c1c(Cl)ccc2c(CCCOc3cccc4cc(F)ccc34)c(C(=O)O)n(CCN3CCC(CN4CCN(c5ccc6c(c5)C(C)N(C5CCC(=O)NC5=O)C6=O)CC4)CC3)c12 (mixture of isomers) [Compound 145, 6-Chloro-1-(2-(4-((4-(2-(2,6-dioxopiperidin-3-yl)-3-methyl-1-oxoisoindolin-5-yl)piperazin-1-yl)methyl)piperidin-1-yl)ethyl)-3-(3-((6-fluoronaphthalen-1-yl)oxy)propyl)-7-(1,3,5-trimethyl-1H-pyrazol-4-yl)-1H-indole-2-carboxylic acid] | < 31.6 | < 100 | > 10000
COc1ccc2c(c1OCC(=O)N1CCN(CCn3c(C(=O)O)c(CCCOc4cccc5cc(F)ccc45)c4ccc(Cl)c(-c5c(C)nn(C)c5C)c43)CC1)CN(C1CCC(=O)NC1=O)C2=O (stereo not drawn) [Compound 7, 6-Chloro-1-{2-[4-(2-{[2-(2,6-dioxopiperidin-3-yl)-5-methoxy-1-oxo-2,3-dihydro-1H-isoindol-4-yl]oxy}acetyl)piperazin-1-yl]ethyl}-3-{3-[(6-fluoronaphthalen-1-yl)oxy]propyl}-7-(1,3,5-trimethyl-1H-pyrazol-4-yl)-1H-indole-2-carboxylic acid] | < 100 | < 100 | > 10000
Cc1nc2c(C(=O)NC3CCC(=O)NC3=O)cc(OCC(=O)N3CCN(CCn4c(C(=O)O)c(CCCOc5cccc6cc(F)ccc56)c5ccc(Cl)c(-c6c(C)nn(C)c6C)c54)CC3)cc2[nH]1 (stereo not drawn) [Compound 2, 6-Chloro-1-(2-(4-(2-((4-((2,6-dioxopiperidin-3-yl)carbamoyl)-2-methyl-1H-benzo[d]imidazol-6-yl)oxy)acetyl)piperazin-1-yl)ethyl)-3-(3-((6-fluoronaphthalen-1-yl)oxy)propyl)-7-(1,3,5-trimethyl-1H-pyrazol-4-yl)-1H-indole-2-carboxylic acid] | < 100 | < 100 | > 10000
Cc1nn(C)c(C)c1-c1c(Cl)ccc2c(CCCOc3cccc4cc(F)ccc34)c(C(=O)O)n(CCN3CCN(C(=O)COc4cc(N)cc5c4CN(C4CCC(=O)NC4=O)C5=O)CC3)c12 (stereo not drawn) [Compound 11, 1-{2-[4-(2-{[6-Amino-2-(2,6-dioxopiperidin-3-yl)-1-oxo-2,3-dihydro-1H-isoindol-4-yl]oxy}acetyl)piperazin-1-yl]ethyl}-6-chloro-3-{3-[(6-fluoronaphthalen-1-yl)oxy]propyl}-7-(1,3,5-trimethyl-1H-pyrazol-4-yl)-1H-indole-2-carboxylic acid] | < 316 | < 100 | > 10000
Cc1nc2c(OCC(=O)N3CCN(CCn4c(C(=O)O)c(CCCOc5cccc6cc(F)ccc56)c5ccc(Cl)c(-c6c(C)nn(C)c6C)c54)CC3)cccc2cc1C1CCC(=O)NC1=O (stereo not drawn) [Compound 4, 6-Chloro-1-{2-[4-(2-{[3-(2,6-dioxopiperidin-3-yl)-2-methylquinolin-8-yl]oxy}acetyl)piperazin-1-yl]ethyl}-3-{3-[(6-fluoronaphthalen-1-yl)oxy]propyl}-7-(1,3,5-trimethyl-1H-pyrazol-4-yl)-1H-indole-2-carboxylic acid] | < 100 | < 316 | > 10000
CNc1cc(OCC(=O)N2CCN(CCn3c(C(=O)O)c(CCCOc4cccc5cc(F)ccc45)c4ccc(Cl)c(-c5c(C)nn(C)c5C)c43)CC2)c2c(c1)C(=O)N(C1CCC(=O)NC1=O)C2 (stereo not drawn) [Compound 12, 6-Chloro-1-(2-(4-(2-((2-(2,6-dioxopiperidin-3-yl)-6-(methylamino)-1-oxoisoindolin-4-yl)oxy)acetyl)piperazin-1-yl)ethyl)-3-(3-((6-fluoronaphthalen-1-yl)oxy)propyl)-7-(1,3,5-trimethyl-1H-pyrazol-4-yl)-1H-indole-2-carboxylic acid] | < 316 | < 100 | > 31600
